The supplement of paper PMC8671470

test system: myeloid leukemia patient primary cells Pat.12; experiment: cell viability (% survival relative to DMSO control); higher = less cytotoxic; conditions: 10 nM; 72 h
In short: (§1)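 Thawed mononuclear cells from AML or CML patients were purified on Ficoll and cultured for 72 h in RPMI 1640 with 10% FBS, at 10,000 cells/well, on 384-well plates carrying 70 pre-printed compounds at 1–10,000 nM in five tenfold steps, in duplicate. Viability came from CellTiter-Glo, normalised against DMSO and against 10 μM proteasome inhibitor. Any area under the curve given was derived from log-logistic curve fits in the drc and PharmacoGx R packages, and these fits had four parameters.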

In the case of O=c1[nH]c(=O)n([C@H]2C[C@H](O)[C@@H](CO)O2)cc1I [Idoxuridine], the cell viability was 95.6%.

same assay, conditions: 100 nM; 72 h

In order of falling cell viability:
1. O=c1[nH]c(=O)n([C@H]2C[C@H](O)[C@@H](CO)O2)cc1I [Idoxuridine]  99%
2. Nc1ccn([C@@H]2O[C@H](CO)[C@@H](O)C2(F)F)c(=O)n1 [Gemcitabine]  98.4%
3. Clc1cc(Cl)c(OCC#CI)cc1Cl [Haloprogin]  94.2%
4. O=C(Cc1cccc(OC(F)(F)F)c1)Nc1ccc(CCCCc2nnc(NC(=O)Cc3ccccn3)s2)nn1 [CB-839]  88%
5. O=C(/C=C/c1cccnc1)NCCCCC1CCN(C(=O)c2ccccc2)CC1 [Daporinad]  8.2%

same assay, conditions: 1000 nM; 72 h

In order of falling cell viability:
1. Nc1ccn([C@@H]2O[C@H](CO)[C@@H](O)C2(F)F)c(=O)n1 [Gemcitabine]  92.4%
2. O=c1[nH]c(=O)n([C@H]2C[C@H](O)[C@@H](CO)O2)cc1I [Idoxuridine]  87.3%
3. O=C(Cc1cccc(OC(F)(F)F)c1)Nc1ccc(CCCCc2nnc(NC(=O)Cc3ccccn3)s2)nn1 [CB-839]  80.1%
4. Clc1cc(Cl)c(OCC#CI)cc1Cl [Haloprogin]  67.1%
5. O=C(/C=C/c1cccnc1)NCCCCC1CCN(C(=O)c2ccccc2)CC1 [Daporinad]  5.73%

same assay, conditions: 10000 nM; 72 h

In order of rising cell viability:
1. Clc1cc(Cl)c(OCC#CI)cc1Cl [Haloprogin]  0.0486%
2. O=C(/C=C/c1cccnc1)NCCCCC1CCN(C(=O)c2ccccc2)CC1 [Daporinad]  3.19%
3. Nc1ccn([C@@H]2O[C@H](CO)[C@@H](O)C2(F)F)c(=O)n1 [Gemcitabine]  82.8%
4. O=c1[nH]c(=O)n([C@H]2C[C@H](O)[C@@H](CO)O2)cc1I [Idoxuridine]  99.1%
5. O=C(Cc1cccc(OC(F)(F)F)c1)Nc1ccc(CCCCc2nnc(NC(=O)Cc3ccccn3)s2)nn1 [CB-839]  99.4%

test system: myeloid leukemia patient primary cells Pat.13; experiment: as above; conditions: 1 nM; 72 h
In short: as §1

In order of rising cell viability:
1. O=C(Cc1cccc(OC(F)(F)F)c1)Nc1ccc(CCCCc2nnc(NC(=O)Cc3ccccn3)s2)nn1 [CB-839]  85.3%
2. Clc1cc(Cl)c(OCC#CI)cc1Cl [Haloprogin]  88.1%
3. Nc1ccn([C@@H]2O[C@H](CO)[C@@H](O)C2(F)F)c(=O)n1 [Gemcitabine]  89.5%
4. O=c1[nH]c(=O)n([C@H]2C[C@H](O)[C@@H](CO)O2)cc1I [Idoxuridine]  91%
5. O=C(/C=C/c1cccnc1)NCCCCC1CCN(C(=O)c2ccccc2)CC1 [Daporinad]  95%

same assay, conditions: 10 nM; 72 h

In order of falling cell viability:
1. O=C(Cc1cccc(OC(F)(F)F)c1)Nc1ccc(CCCCc2nnc(NC(=O)Cc3ccccn3)s2)nn1 [CB-839]  88.9%
2. Clc1cc(Cl)c(OCC#CI)cc1Cl [Haloprogin]  86%
3. Nc1ccn([C@@H]2O[C@H](CO)[C@@H](O)C2(F)F)c(=O)n1 [Gemcitabine]  84.5%
4. O=c1[nH]c(=O)n([C@H]2C[C@H](O)[C@@H](CO)O2)cc1I [Idoxuridine]  84.4%
5. O=C(/C=C/c1cccnc1)NCCCCC1CCN(C(=O)c2ccccc2)CC1 [Daporinad]  34.4%

same assay, conditions: 100 nM; 72 h

In order of falling cell viability:
1. Clc1cc(Cl)c(OCC#CI)cc1Cl [Haloprogin]  91%
2. Nc1ccn([C@@H]2O[C@H](CO)[C@@H](O)C2(F)F)c(=O)n1 [Gemcitabine]  90.2%
3. O=c1[nH]c(=O)n([C@H]2C[C@H](O)[C@@H](CO)O2)cc1I [Idoxuridine]  83.4%
4. O=C(Cc1cccc(OC(F)(F)F)c1)Nc1ccc(CCCCc2nnc(NC(=O)Cc3ccccn3)s2)nn1 [CB-839]  69%
5. O=C(/C=C/c1cccnc1)NCCCCC1CCN(C(=O)c2ccccc2)CC1 [Daporinad]  9.16%

same assay, conditions: 1000 nM; 72 h

In order of rising cell viability:
1. O=C(/C=C/c1cccnc1)NCCCCC1CCN(C(=O)c2ccccc2)CC1 [Daporinad]  3.22%
2. O=C(Cc1cccc(OC(F)(F)F)c1)Nc1ccc(CCCCc2nnc(NC(=O)Cc3ccccn3)s2)nn1 [CB-839]  64.6%
3. Clc1cc(Cl)c(OCC#CI)cc1Cl [Haloprogin]  67.8%
4. O=c1[nH]c(=O)n([C@H]2C[C@H](O)[C@@H](CO)O2)cc1I [Idoxuridine]  74.8%
5. Nc1ccn([C@@H]2O[C@H](CO)[C@@H](O)C2(F)F)c(=O)n1 [Gemcitabine]  86.3%

same assay, conditions: 10000 nM; 72 h

In order of falling cell viability:
1. O=c1[nH]c(=O)n([C@H]2C[C@H](O)[C@@H](CO)O2)cc1I [Idoxuridine]  91.9%
2. O=C(Cc1cccc(OC(F)(F)F)c1)Nc1ccc(CCCCc2nnc(NC(=O)Cc3ccccn3)s2)nn1 [CB-839]  84%
3. Nc1ccn([C@@H]2O[C@H](CO)[C@@H](O)C2(F)F)c(=O)n1 [Gemcitabine]  36.4%
4. Clc1cc(Cl)c(OCC#CI)cc1Cl [Haloprogin]  26.3%
5. O=C(/C=C/c1cccnc1)NCCCCC1CCN(C(=O)c2ccccc2)CC1 [Daporinad]  7.15%

test system: myeloid leukemia patient primary cells Pat.14; experiment: as above; conditions: 1 nM; 72 h
In short: as §1

In order of rising cell viability:
1. O=C(/C=C/c1cccnc1)NCCCCC1CCN(C(=O)c2ccccc2)CC1 [Daporinad]  17.1%
2. Nc1ccn([C@@H]2O[C@H](CO)[C@@H](O)C2(F)F)c(=O)n1 [Gemcitabine]  52.8%
3. O=C(Cc1cccc(OC(F)(F)F)c1)Nc1ccc(CCCCc2nnc(NC(=O)Cc3ccccn3)s2)nn1 [CB-839]  75.6%
4. O=c1[nH]c(=O)n([C@H]2C[C@H](O)[C@@H](CO)O2)cc1I [Idoxuridine]  82.1%
5. Clc1cc(Cl)c(OCC#CI)cc1Cl [Haloprogin]  88.5%

same assay, conditions: 10 nM; 72 h

In order of rising cell viability:
1. O=C(/C=C/c1cccnc1)NCCCCC1CCN(C(=O)c2ccccc2)CC1 [Daporinad]  1.32%
2. Nc1ccn([C@@H]2O[C@H](CO)[C@@H](O)C2(F)F)c(=O)n1 [Gemcitabine]  44.5%
3. O=C(Cc1cccc(OC(F)(F)F)c1)Nc1ccc(CCCCc2nnc(NC(=O)Cc3ccccn3)s2)nn1 [CB-839]  69.4%
4. O=c1[nH]c(=O)n([C@H]2C[C@H](O)[C@@H](CO)O2)cc1I [Idoxuridine]  75.7%
5. Clc1cc(Cl)c(OCC#CI)cc1Cl [Haloprogin]  96.7%

same assay, conditions: 100 nM; 72 h

Going from O=C(Cc1cccc(OC(F)(F)F)c1)Nc1ccc(CCCCc2nnc(NC(=O)Cc3ccccn3)s2)nn1 [CB-839] to O=C(/C=C/c1cccnc1)NCCCCC1CCN(C(=O)c2ccccc2)CC1 [Daporinad], the cell viability falls from 39.7% to 2.09%.

Going from Nc1ccn([C@@H]2O[C@H](CO)[C@@H](O)C2(F)F)c(=O)n1 [Gemcitabine] to O=c1[nH]c(=O)n([C@H]2C[C@H](O)[C@@H](CO)O2)cc1I [Idoxuridine], the cell viability falls from greater than 100% to 92.2%.

Clc1cc(Cl)c(OCC#CI)cc1Cl [Haloprogin] showed a cell viability of 68.3%.

same assay, conditions: 1000 nM; 72 h

Going from O=C(Cc1cccc(OC(F)(F)F)c1)Nc1ccc(CCCCc2nnc(NC(=O)Cc3ccccn3)s2)nn1 [CB-839] to O=C(/C=C/c1cccnc1)NCCCCC1CCN(C(=O)c2ccccc2)CC1 [Daporinad], the cell viability falls from 41.4% to less than 0%.

Work on Nc1ccn([C@@H]2O[C@H](CO)[C@@H](O)C2(F)F)c(=O)n1 [Gemcitabine] yielded a cell viability of 67.4%.
